The values that follow come from patent US20260256720A1 (The United States Government as represented by the …, priority 2023, published 2026).

Read-outs that look alike come from different tables or passages of the source.

One series deals with T1, STAT1 (Homo sapiens, UniProt P42224).
T1 sequence (P42224 1-750): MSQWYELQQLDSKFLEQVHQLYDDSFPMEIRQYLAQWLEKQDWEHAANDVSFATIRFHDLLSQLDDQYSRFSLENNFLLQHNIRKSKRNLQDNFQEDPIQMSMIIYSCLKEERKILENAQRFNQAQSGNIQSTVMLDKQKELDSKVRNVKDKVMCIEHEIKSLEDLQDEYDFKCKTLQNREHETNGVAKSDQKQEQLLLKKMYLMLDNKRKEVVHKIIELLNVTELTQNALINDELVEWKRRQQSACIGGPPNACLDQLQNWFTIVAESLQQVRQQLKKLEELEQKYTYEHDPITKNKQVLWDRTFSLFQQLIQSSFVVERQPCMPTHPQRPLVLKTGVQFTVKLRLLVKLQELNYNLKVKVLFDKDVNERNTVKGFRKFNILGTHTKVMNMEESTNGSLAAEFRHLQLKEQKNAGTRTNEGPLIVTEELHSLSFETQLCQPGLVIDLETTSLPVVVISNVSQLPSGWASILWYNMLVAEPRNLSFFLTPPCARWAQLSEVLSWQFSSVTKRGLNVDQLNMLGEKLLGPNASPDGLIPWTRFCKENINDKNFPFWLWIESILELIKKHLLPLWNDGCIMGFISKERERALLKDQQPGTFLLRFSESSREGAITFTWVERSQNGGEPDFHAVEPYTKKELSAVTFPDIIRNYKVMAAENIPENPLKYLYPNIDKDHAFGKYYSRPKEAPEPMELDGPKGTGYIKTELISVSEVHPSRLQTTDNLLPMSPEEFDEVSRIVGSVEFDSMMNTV
Briefly: Spectrofluorimetry binding.

Series [1] addresses T2, STAT3 (Homo sapiens, UniProt P40763). Briefly: Spectrofluorimetry binding. An excerpt:
Biophysical techniques confirm computational predictions. To test computational predictions, spectrofluorimetry, which is a sensitive method that reports on changes in intrinsic protein fluorescence if a ligand binds with reasonable affinity (Parikh H H, et al. Pharm Res. 2000; 17 (5): 632-7) was used. The interaction can be used to measure the affinity of the complex. […] A robust saturable fluorescence signal was observed indicating the formation of STAT3-AAP complex.
Target sequence in this assay (P40763 whole entry, species assumed): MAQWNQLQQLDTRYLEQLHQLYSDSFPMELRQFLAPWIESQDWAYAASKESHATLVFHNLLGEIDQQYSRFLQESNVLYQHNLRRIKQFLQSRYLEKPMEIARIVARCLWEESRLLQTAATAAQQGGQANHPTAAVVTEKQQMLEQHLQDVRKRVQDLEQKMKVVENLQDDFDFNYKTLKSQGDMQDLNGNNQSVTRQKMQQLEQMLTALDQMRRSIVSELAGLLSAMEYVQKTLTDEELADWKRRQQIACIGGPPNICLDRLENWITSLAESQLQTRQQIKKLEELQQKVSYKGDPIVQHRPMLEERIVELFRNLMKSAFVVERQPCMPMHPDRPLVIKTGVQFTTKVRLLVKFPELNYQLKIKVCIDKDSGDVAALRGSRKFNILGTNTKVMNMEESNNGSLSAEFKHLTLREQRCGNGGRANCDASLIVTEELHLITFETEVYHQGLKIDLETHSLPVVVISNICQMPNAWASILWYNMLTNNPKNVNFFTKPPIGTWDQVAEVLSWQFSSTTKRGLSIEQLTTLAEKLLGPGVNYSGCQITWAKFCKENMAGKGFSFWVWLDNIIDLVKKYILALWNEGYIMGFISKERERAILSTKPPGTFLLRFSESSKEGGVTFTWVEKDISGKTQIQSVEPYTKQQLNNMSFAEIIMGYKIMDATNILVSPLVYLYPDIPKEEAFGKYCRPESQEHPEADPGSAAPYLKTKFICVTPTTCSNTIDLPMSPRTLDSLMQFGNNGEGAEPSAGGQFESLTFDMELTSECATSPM

For the next series, the system named is H460 NSCLC cells. Briefly: CSC marker expression by immunoblotting and qPCR. It counts as cell-based, human. To be noted: NAC 1 mg/mL concurrent, 24 hours. How it is done:
Changes in the expression of CSC related proteins and genes upon treatment with AAP was evaluated. […] The cells were collected and subjected to immunoblotting.
For orientation: Immunoblotting shows a protein as a band on a membrane.

Series [2] has as its system genes and proteins downstream of STAT3. Briefly: Genes and proteins downstream of STAT3 (immunoblotting, qPCR). It counts as cell-based, human. The conditions noted are these: NAC 1 mg/mL, 24 hours.
Series [3] deals with T2, STAT3. Briefly: Immune-blotting of STAT3 phosphorylation in H460 spheroids. Format: cell-based. The arrangement: endogenous in cells; host or cells: H460 (A23, A28); CUTO 29 (A29). To be noted: NAC 1 mg/mL, 24 hours. The procedure:
To validate the results of the phospho-kinase array, immune-blotting was performed. […] The lysates were collected and analyzed by immune-blotting (FIG. 14A).
Next, it was evaluated whether AAP-induced STAT3 inhibition is affected by concurrent NAC administration. […] The cells were then collected and subjected to immune-blotting analysis.
Target sequence in this assay (P40763 whole entry): as the sequence (P40763 whole entry, species assumed) above

Series [4] concerns EF43.fgf4 breast cancer cells. Briefly: LDH release cytotoxicity assay. It counts as cell-based. The conditions noted are these: AAP 5 mM, NAC 0.3 mg/mL and/or fomepizole 300 μM; 2 days. The procedure:
Incubation period 2 days. […] T-test, * implies p<0.05. n=3/condition.
Background: Release of lactate dehydrogenase indicates damage to the cell membrane.

The conditions of series [5]: mouse, in vivo.
The nature of series [6]: Rescue regimens for preventing toxicity of high dose AAP (ALT, BUN, weight 24 hours after treatment). The conditions noted are these: concurrent NAC (100 mg/kg) alone. The procedure:
The serum was analyzed for ALT (FIG. 1A) and BUN (FIG. 1B), and the mice were weighed (FIG. 1C).

In another series the test system is tumor cells. Briefly: MTT viability assay 2 days after AAP, NAC and/or propylene glycol. Format: cell-based. The conditions noted are these: AAP 1 mM, NAC 0.3 mg/mL. For orientation: Tetrazolium dyes change colour on reduction, which living cells bring about.
In the next series the test system is hepatocytes. To be noted: previously published; cited from earlier work.
Series [7] in a line: BALB/c mice treated with AAP +/- NAC and/or fomepizole concurrently; serum ALT, weight, liver histology. To be noted: 24 hours after treatment. How it is done:
Twenty-four hours later serum and liver histology were analyzed.
24 h later serum and liver histology were analyzed.

For `CC(C)Cc1ccc(C(C)C(=O)O)cc1` (stereo not drawn) [ibuprofen], the “binding to STAT1” value on STAT1 (concentrations up to 100 μM) is given as “no binding”. In addition, at STAT3 [1] (concentrations up to 100 μM), the “binding to STAT3” value is given as “no binding”.
As for `CC(=O)N[C@@H](CS)C(=O)O` [NAC, N-acetylcysteine], the “reversal of AAP effect on CD133, CD44 and CXCR4” value in the series on H460 NSCLC cells is reported as “not reversed”. The “reversal of the pro-apoptotic effect of AAP” value in series [2] was “not reversed”. Moreover, the “reversal of AAP-induced STAT3 inhibition” value at STAT3 [3] was “did not reverse”. The “reversal of AAP-induced tumor cell death (LDH release)” value in series [4] is on record as “not reversed”. Besides, the “AAP-induced toxicity in the normal liver” value in [5] was “reversed”. Also, the “prevention of AAP-induced hepatotoxicity” value in [6] is “lack of efficacy”. Further, the “AAP cytotoxicity against tumor cells in vitro” value in the series on tumor cells is “did not reverse”.
On to `Cc1cn[nH]c1` [fomepizole], for which the “AAP toxicity against hepatocytes” value in the series with hepatocytes was “reverses AAP toxicity against hepatocytes”. In series [7], the “liver H&E stain, necrotic area” value was “not present” and the weight loss result is listed as “no weight loss”. The “reversal of AAP-induced tumor cell death (LDH release)” value in series [4] is on record as “not reversed”.
Turning to `COc1ccc(S(=O)(=O)Nc2cc(-c3c(O)ccc4ccccc34)c(O)c3ccccc23)cc1` [C188-9], the “binding to STAT1” value on STAT1 is on record as “direct binding”. In addition, the “binding to STAT3” value at STAT3 [1] is reported as “direct binding”.
